We go through 37 compounds from patent US8173638B2 (Boehringer Ingelheim International GmbH, priority 2006, dated 2012).

The target in the assay is T1, human CB2R (Homo sapiens, UniProt P34972).
T1 construct: host or cells: CHO cells
T1 sequence (P34972 whole entry): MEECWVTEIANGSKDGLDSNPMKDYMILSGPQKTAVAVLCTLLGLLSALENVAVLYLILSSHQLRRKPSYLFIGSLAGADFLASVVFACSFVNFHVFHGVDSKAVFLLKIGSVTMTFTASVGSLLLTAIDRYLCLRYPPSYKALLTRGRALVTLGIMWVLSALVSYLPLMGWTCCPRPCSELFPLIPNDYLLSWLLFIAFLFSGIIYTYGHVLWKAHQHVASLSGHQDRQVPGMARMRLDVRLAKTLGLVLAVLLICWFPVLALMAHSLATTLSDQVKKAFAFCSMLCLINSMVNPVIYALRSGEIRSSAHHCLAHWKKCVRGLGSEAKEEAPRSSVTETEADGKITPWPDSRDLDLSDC
The experiment in a line: CB2R mediated modulation of cAMP synthesis. Format: cell-based. To be noted: found through the use of the described assays (CB2 agonists); qualitative statement. The gist of the method:
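CHO cells expressing human CB2R treated with compound 30 min at 37 °C in buffer with 1 mM IBMX, 0.25% BSA and 10 uM forskolin. cAMP measured after lysis by DiscoverX-XS kit.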
As for `CC(C)(C)c1csc(NC(=O)N2CCCN(C(=O)C3CCOCC3)CC2)n1` [4-(Tetrahydro-pyran-4-carbonyl)-[1,4]diazepane-1-carboxylic acid (4-tert-butyl-thiazol-2-yl)-amide], the agonistic activity result is reported as “agonistic activity”. As to `O=C(Nc1ccc(C(F)(F)F)cc1)N1CCCN(C(=O)C2CCOCC2)CC1` [4-(Tetrahydro-pyran-4-carbonyl)-[1,4]diazepane-1-carboxylic acid (4-trifluoromethyl-phenyl)-amide], the agonistic activity entry is “agonistic activity”. Turning to `O=C(Nc1cc(C(F)(F)F)ccn1)N1CCCN(C(=O)C2CCOCC2)CC1` [4-(Tetrahydro-pyran-4-carbonyl)-[1,4]diazepane-1-carboxylic acid (4-trifluoromethyl-pyridin-2-yl)-amide], the agonistic activity result is listed as “agonistic activity”. Consider `O=C(Nc1ccc(SC(F)(F)F)cc1)N1CCCN(C(=O)C2CCOCC2)CC1` [4-(Tetrahydro-pyran-4-carbonyl)-[1,4]diazepane-1-carboxylic acid (4-trifluoromethylsulfanyl-phenyl)-amide], for which the agonistic activity entry is given as “agonistic activity”. For `CC(C)c1cnc(NC(=O)N2CCCN(C(=O)C3CCOCC3)CC2)s1` [4-(Tetrahydro-pyran-4-carbonyl)-[1,4]diazepane-1-carboxylic acid (5-isopropyl-thiazol-2-yl)-amide], the agonistic activity result is given as “agonistic activity”.

As to `O=C(Nc1cc(-c2ccccc2)on1)N1CCCN(C(=O)C2CCOCC2)CC1` [4-(Tetrahydro-pyran-4-carbonyl)-[1,4]diazepane-1-carboxylic acid (5-phenyl-isoxazol-3-yl)-amide], the agonistic activity entry was “agonistic activity”.

`CCC(C)c1cc(NC(=O)N2CCCN(C(=O)C3CCOCC3)CC2)n(C)n1` (stereo not shown) [4-(Tetrahydro-pyran-4-carbonyl)-[1,4]diazepane-1-carboxylic acid (5-sec-butyl-2-methyl-2H-pyrazol-3-yl)-amide]: the agonistic activity entry is given as “agonistic activity”. As to `CCC(C)c1ccc(NC(=O)N2CCCN(C(=O)C3CCOCC3)CC2)nc1` (stereo not shown) [4-(Tetrahydro-pyran-4-carbonyl)-[1,4]diazepane-1-carboxylic acid (5-sec-butyl-pyridin-2-yl)-amide], the agonistic activity entry was “agonistic activity”. The entry for `CC(C)(C)c1cc(NC(=O)N2CCCN(C(=O)C3CCOCC3)CC2)[nH]n1` [4-(Tetrahydro-pyran-4-carbonyl)-[1,4]diazepane-1-carboxylic acid (5-tert-butyl-2H-pyrazol-3-yl)-amide] is “agonistic activity”; for `Cc1nc(NC(=O)N2CCCN(C(=O)C3CCOCC3)CC2)sc1C(C)(C)C` [4-(Tetrahydro-pyran-4-carbonyl)-[1,4]diazepane-1-carboxylic acid (5-tert-butyl-4-methyl-thiazol-2-yl)-amide] it is “agonistic activity”; for `CC(C)(C)c1cc(NC(=O)N2CCCN(C(=O)C3CCOCC3)CC2)no1` [4-(Tetrahydro-pyran-4-carbonyl)-[1,4]diazepane-1-carboxylic acid (5-tert-butyl-isoxazol-3-yl)-amide] it is “agonistic activity”. In the case of `O=C(Nc1ccc(C(F)(F)F)cn1)N1CCCN(C(=O)C2CCOCC2)CC1` [4-(Tetrahydro-pyran-4-carbonyl)-[1,4]diazepane-1-carboxylic acid (5-trifluoromethyl-pyridin-2-yl)-amide] it was “agonistic activity”; in that of `O=C(Nc1ccc(Oc2ccccc2)nc1)N1CCCN(C(=O)C2CCOCC2)CC1` [4-(Tetrahydro-pyran-4-carbonyl)-[1,4]diazepane-1-carboxylic acid (6-phenoxy-pyridin-3-yl)-amide], “agonistic activity”. In the case of `CC(c1ccc(NC(=O)N2CCCN(C(=O)C3CCOCC3)CC2)cc1)C(F)(F)F` (stereo not shown) [4-(Tetrahydro-pyran-4-carbonyl)-[1,4]diazepane-1-carboxylic acid [4-(2,2,2-trifluoro-1-methyl-ethyl)-phenyl]-amide] it was “agonistic activity”. Turning to `O=C(Nc1ccc2ccccc2c1)N1CCCN(C(=O)C2CCOCC2)CC1` [4-(Tetrahydro-pyran-4-carbonyl)-[1,4]diazepane-1-carboxylic acid naphthalen-2-ylamide], the agonistic activity entry is on record as “agonistic activity”.

As for `O=C(Nc1cnc2ccccc2c1)N1CCCN(C(=O)C2CCOCC2)CC1` [4-(Tetrahydro-pyran-4-carbonyl)-[1,4]diazepane-1-carboxylic acid quinolin-3-ylamide], the agonistic activity result is reported as “agonistic activity”.

`CC(C)(C)c1cc(NC(=O)N2CCCN(C(=O)N3CCSCC3)CC2)no1` [4-(Thiomorpholine-4-carbonyl)-[1,4]diazepane-1-carboxylic acid (5-tert-butyl-isoxazol-3-yl)-amide]: the agonistic activity result was “agonistic activity”. The entry for `CC(C)(C)c1cc(NC(=O)N2CCCN(C(=O)N3CCCOCC3)CC2)no1` [4-([1,4]Oxazepane-4-carbonyl)-[1,4]diazepane-1-carboxylic acid (5-tert-butyl-isoxazol-3-yl)-amide] is “agonistic activity”; for `CCCCc1ccc(NC(=O)N2CCCN(C(=O)c3ccccc3)CC2)cc1` [4-Benzoyl-[1,4]diazepane-1-carboxylic acid (4-butyl-phenyl)-amide] it is “agonistic activity”; for `CC(C)c1ccc(NC(=O)N2CCCN(C(=O)c3ccccc3)CC2)cc1` [4-Benzoyl-[1,4]diazepane-1-carboxylic acid (4-isopropyl-phenyl)-amide] it is “agonistic activity”. In the case of `O=C(Nc1ccc(C(F)(F)F)cc1)N1CCCN(C(=O)c2ccccc2)CC1` [4-Benzoyl-[1,4]diazepane-1-carboxylic acid (4-trifluoromethyl-phenyl)-amide] it was “agonistic activity”; in that of `CC(C)(C)c1cc(NC(=O)N2CCCN(C(=O)C3CCCCCC3)CC2)no1` [4-Cycloheptanecarbonyl-[1,4]diazepane-1-carboxylic acid (5-tert-butyl-isoxazol-3-yl)-amide], “agonistic activity”; in that of `O=C(Nc1ccc(Cl)c(Cl)c1)N1CCCN(C(=O)C2CCCCC2)CC1` [4-Cyclohexanecarbonyl-[1,4]diazepane-1-carboxylic acid (3,4-dichloro-phenyl)-amide], “agonistic activity”.

Consider `O=C(Nc1cc(Cl)cc(Cl)c1)N1CCCN(C(=O)C2CCCCC2)CC1` [4-Cyclohexanecarbonyl-[1,4]diazepane-1-carboxylic acid (3,5-dichloro-phenyl)-amide], for which the agonistic activity entry is given as “agonistic activity”.

For the compound `CCc1ccc(NC(=O)N2CCCN(C(=O)C3CCCCC3)CC2)cc1` [4-Cyclohexanecarbonyl-[1,4]diazepane-1-carboxylic acid (4-ethyl-phenyl)-amide], the agonistic activity result is “agonistic activity”. Take `CC(C)c1ccc(NC(=O)N2CCCN(C(=O)C3CCCCC3)CC2)cc1` [4-Cyclohexanecarbonyl-[1,4]diazepane-1-carboxylic acid (4-isopropyl-phenyl)-amide]: the agonistic activity result is “agonistic activity”. On to `O=C(Nc1ccc(C(F)(F)F)cc1)N1CCCN(C(=O)C2CCCCC2)CC1` [4-Cyclohexanecarbonyl-[1,4]diazepane-1-carboxylic acid (4-trifluoromethyl-phenyl)-amide], for which the agonistic activity result was “agonistic activity”.

On to `O=C(Nc1ccc(SC(F)(F)F)cc1)N1CCCN(C(=O)C2CCCCC2)CC1` [4-Cyclohexanecarbonyl-[1,4]diazepane-1-carboxylic acid (4-trifluoromethylsulfanyl-phenyl)-amide], for which the agonistic activity entry is given as “agonistic activity”. The entry for `CC(C)(C)c1cc(NC(=O)N2CCCN(C(=O)C3CCCCC3)CC2)no1` [4-Cyclohexanecarbonyl-[1,4]diazepane-1-carboxylic acid (5-tert-butyl-isoxazol-3-yl)-amide] is “agonistic activity”; for `O=C(Nc1ccc2ccccc2c1)N1CCCN(C(=O)C2CCCCC2)CC1` [4-Cyclohexanecarbonyl-[1,4]diazepane-1-carboxylic acid naphthalen-2-ylamide] it is “agonistic activity”. For the compound `CCCCc1ccc(NC(=O)N2CCCN(C(=O)C3CCCC3)CC2)cc1` [4-Cyclopentanecarbonyl-[1,4]diazepane-1-carboxylic acid (4-butyl-phenyl)-amide], the agonistic activity result is reported as “agonistic activity”. In the case of `CC(C)(C)c1ccc(NC(=O)N2CCCN(C(=O)C3CCCC3)CC2)cc1` [4-Cyclopentanecarbonyl-[1,4]diazepane-1-carboxylic acid (4-tert-butyl-phenyl)-amide] it was “agonistic activity”; in that of `CC(C)(C)c1cc(NC(=O)N2CCCN(C(=O)C3CCCC3)CC2)no1` [4-Cyclopentanecarbonyl-[1,4]diazepane-1-carboxylic acid (5-tert-butyl-isoxazol-3-yl)-amide], “agonistic activity”.

Take `O=C(Nc1ccc2ccccc2c1)N1CCCN(C(=O)C2CCCC2)CC1` [4-Cyclopentanecarbonyl-[1,4]diazepane-1-carboxylic acid naphthalen-2-ylamide]: the agonistic activity result is “agonistic activity”. In the case of `CC(C)(C)c1cc(NC(=O)N2CCCN(C(=O)CN3CCS(=O)(=O)CC3)CC2)on1` [4-[2-(1,1-Dioxo-1λ^6-thiomorpholin-4-yl)-acetyl]-[1,4]diazepane-1-carboxylic acid (3-tert-butyl-isoxazol-5-yl)-amide] it was “agonistic activity”.

In the case of `CC(C)(C)c1cc(NC(=O)N2CCCN(C(=O)CN3CCC(F)(F)CC3)CC2)no1` [4-[2-(4,4-Difluoro-piperidin-1-yl)-acetyl]-[1,4]diazepane-1-carboxylic acid (5-tert-butyl-isoxazol-3-yl)-amide], the agonistic activity entry is “agonistic activity”. The entry for `C[C@@H]1CN(CC(=O)N2CCCN(C(=O)Nc3cc(C(C)(C)C)on3)CC2)C[C@H](C)O1` [4-[2-((2R,6S)-2,6-Dimethyl-morpholin-4-yl)-acetyl]-[1,4]diazepane-1-carboxylic acid (5-tert-butyl-isoxazol-3-yl)-amide] is “agonistic activity”.
